Experimental findings from article PMC10094418, “Butein Inhibits Cell Growth by Blocking the IL-6/IL-6Rα Interaction in Human Ovarian Cancer and by Regulation of the IL-6/STAT3/FoxO3a Pathway” (International Journal of Molecular Sciences, 2023) are described below.

Assay [1] concerns STAT3 phosphorylation in A2780 cells. Nature of the assay: Western blotting of STAT3 phosphorylation, A2780. Format: cell-based, human. To be noted: relative to IL-6 treated cells. As for the experimental part: After each drug treatment of the cells, the cells were dissolved in 100 μL of radioimmunoprecipitation assay (RIPA) buffer (Thermo Fisher Scientific Inc., Waltham, MA, USA) and centrifuged to separate the supernatant containing protein. Isolated protein concentrations were measured using the Pierce BCA Protein Assay Kit (Thermo Fisher Scientific Inc., Waltham, MA, USA). Aliquots of proteins quantified at […] were boiled at 100 °C in 5× sample buffer, separated on a 12% SDS-polyacrylamide gel and electrophoresed onto polyvinylidene difluoride (PDVF) membranes (Millipore, Billerica, MA, USA). The PDVF membranes were blocked for 1 h at 25 °C with 5% BSA in 1× tris buffered saline containing 0.05% Tween20 (TBST) (Sigma-Aldrich, St. Louis, MO, USA). The membrane was incubated in the primary antibody at 4 °C overnight. PDVF membranes were washed with 1× TBST and incubated with AffiniPure goat anti-rabbit IgG secondary antibody (Jackson Immunoresearch, West Grove, PA, USA) for 1 h at room temperature. After washing again with TBST buffer, enhanced signals were detected using the SuperSignal™ West Femto Maximum Sensitivity Substrate kit (cat.no. 34094, Thermo Scientific, Rockford, IL, USA). The blot was imaged using the ChemiDoc imaging system (Bio-Rad, Herles, CA, USA), and protein expression was quantified with the ImageJ software (v1.8.0).
(In general: Immunoblotting shows a protein as a band on a membrane.)

For assay [2], the system named is IL-6 signaling in HEK-Blue™ IL-6 cells. Nature of the assay: IL-6 inhibitory bioassay with HEK-Blue IL-6 cells (SEAP activity). Format: cell-based, human. To be noted: 10 ng/mL IL-6, 24 h. As to the method:
HEK-Blue™ IL-6 cells were obtained from InvivoGen (San Diego, CA, USA). In a 96-well plate, 20 μL butein at various concentrations (0, 3.125, 6.25, 12.5, 25, and 50 μM) were added to the cell suspension (50,000 cells/200 μL). Following this, the recombinant human IL-6 (BioLegend, San Diego, CA, USA) was administered at 10 ng/mL. After 24 h, 20 μL of the IL-6-treated cell suspension was added to 180 μL of QUANTI-Blue™ Solution (JnvivoGen, San Diego, CA, USA) in a new 96-well plate. After 2 h of incubation at 37 °C, the spectrophotometric absorbance between 620 and 655 nm was recorded.

Assay [3] concerns A2780 cells. Nature of the assay: Flow cytometric cell cycle analysis (PI), A2780. Format: cell-based, human. As to conditions: 25 μM; 45.3% under control conditions. As to the method:
A2780 and SKOV3 cell lines were treated with control (siltuximab 10 μM) and butein (5, 10, and 25 μM). After 6 h, the cells were fixed with 70% ethanol for cell cycle analysis and stained with propidium iodide (PI). Cell death was analyzed using the FITC Annexin V Apoptosis Detection kit with 7-AAD (Cat.no. 640922, BioLegend, San Diego, CA, USA). Cells were sorted using a FACS Canto II (BD Biosciences, Franklin Lakes, NJ, USA) and cell cycle and apoptosis were analyzed using BD FACS Diva software version 6. 2. Analysis (BD Biosciences, Franklin Lakes, NJ, USA) was performed in triplicate.
Background: In flow cytometry, cells or beads pass a laser one at a time.

In assay [4] the test system is A2780 cells. Put plainly: Matrigel invasion assay, A2780. To be noted: 48 h. Format: cell-based, human. As for the experimental part: Matrigel invasion assays were performed using a BioCoat Matrigel Invasion Chamber (BD Bioscience, Bedford, MA, USA). A2780 and SKOV3 cells (50,000 cells) were placed inside the chamber in serum-free medium containing 500 μL of drugs, and 700 μL of medium containing serum were placed outside the chamber. After incubation for 48 h, the infiltrating cells were stained using the Differential Quick Stain Kit (Cat.no. 26096-50, Electron Microscopy Sciences, Hatfield, PA, USA). Cells were imaged with a Slide Scanner (Aperio CS2, Leica Microsystems, Wetzlar, Germany) and the number of invading cells was quantified using Image J.

The target in another assay is T1, IL-6/IL-6Rα interaction (Homo sapiens, UniProt P05231).
T1 construct: purchased BioLegend (IL-6); Acro biosystems (IL-6Ra) 570806 (IL-6); ILR-H5259 (IL-6Ra)
Nature of the assay: ELISA of the IL-6/IL-6Rα interaction. It counts as binding. To be noted: at 20 μM. As for the experimental part: An amount of 0.5 μg/mL rhIL-6 protein (Cat.no.570806, BioLegend) was coated onto 96-well ELISA plates at 4 °C overnight, and then the plates were washed with PBST (1 × PBS containing 0.05% Tween-20), followed by the addition of PBSA (1 × PBS containing 1% bovine serum albumin (BSA)) (Bovogen, East Keilor, Australia) for 1 h at room temperature. After blocking, the FDA-approved compounds (20 uM) (Cat.no. L-1300, Selleckchem, Houston, TX, USA) were incubated for 2 h at room temperature. After washing three times with PBST, 0.2 μg/mL recombinant IL-6Ra protein (Cat.no.ILR-H5259, Acro biosystems, Newark, DE, USA) was added to the plates, which were incubated for 1 h. After washing three times with PBST, HRP-conjugated goat anti-human IgG Ab (Cat.no. 10-035-098, Jackson Immno, Hatfield, West Grove, PA, USA) was added to the plates and incubated for 1 h. After washing three times with PBST, TMB solution (Cat.no.11684302001, Roche, Mannheim, Germany) was added to the plates and incubated for 15 min. Then, stop solution (2N HCl) was added to the plates. The absorbance was measured at 450 nm using the Epoch microplate spectrophotometer (BioTek instruments, Winooski, VT, USA).
A general note: An ELISA detects its analyte on a solid surface through an enzyme-linked reagent.

By IC50 is commonly meant the concentration at which inhibition is half-maximal.

T1 sequence (P05231 30-212): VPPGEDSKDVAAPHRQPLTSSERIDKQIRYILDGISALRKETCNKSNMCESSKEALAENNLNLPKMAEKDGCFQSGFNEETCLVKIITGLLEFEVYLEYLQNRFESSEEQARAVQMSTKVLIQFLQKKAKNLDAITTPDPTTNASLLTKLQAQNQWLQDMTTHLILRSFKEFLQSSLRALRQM

Take `O=C(/C=C/c1ccc(O)c(O)c1)c1ccc(O)cc1O` [butein]: the “Phosphorylation of STAT3, A2780” value in assay [1] is given as “inhibited in a concentration-dependent manner”. For the same compound, in assay [2] (0-50 μM), the “Inhibition of SEAP signal of HEK-Blue IL-6” value was “maximum inhibition”. Also, the “LogIC50, HEK-Blue IL-6 SEAP activity” value in assay [2] came out at 1.049±0.524 μM. The IC50 in assay [2] (Homo sapiens, HEK-Blue IL-6) was determined as 12.9 ± 0.15 µM. In the assay with A2780 cells [3], the “A2780 cells in G1-phase” value came out at 55.9%. Besides, the “Cell infiltration (invasion), A2780” value with A2780 cells [4] is reported as “similarly affected”. The “Reduction of the interaction between IL-6 and IL-6Rα” value at IL-6/IL-6Rα interaction was determined as 21.7%.
